{"source": "paper PMC10693528", "about": "“A high-throughput metabolomics in vitro platform for the characterization of hepatotoxicity” (Cell Biology and Toxicology, 2023)", "test_system": "HepG2 cells", "assay": "LC-MS/MS targeted intracellular metabolomics", "assay_type": "cell-based, human", "details": "Suppl Fig 11, C3, 48 h", "procedure": "Metabolite profiling of cells was performed directly in the same 96-well plate according to a standardized protocol described below. In order to prevent any interaction with the cell material, the automatic sampler was adjusted to pick up the sample from the supernatant at a specified depth avoiding the contact with the bottom of the plate.\nAfter the initial quenching step (50 μL isopropanol 80%), additional 70 μL of isopropanol 80%, containing internal standards (methionine-D3, tryptophan-D5, arginine-13C6-15N4, Boc-Ala-Gly-Gly-Gly-OH, coenzyme Q1, coenzyme Q2, coenzyme Q4) were added to each well. The internal standards were used for quality control by visual inspection (signal intensity, peak shape, retention time); they were not used for normalization. Afterwards, plates were shaken for 5 min, 750 rpm at 20 °C, and placed for 30 s in the ultrasonic device. Then, the plates were centrifugated for 10 min, at 5485 g, 15 °C. Further, 2.5 μL of the extract were injected each for reversed-phase and hydrophilic interaction liquid chromatography followed by MS/MS detection (AB Sciex QTrap 6500+) using the positive and negative ionization mode. For reverse-phase high-performance liquid chromatography (RP-HPLC, Ascentis Express C18, 5 cm × 2.1 mm, 2.7 μm Supelco), gradient elution was performed with mobile phase A, water/methanol/0.1 M ammonium formate (1:1:0.02, w/w), and B, methyl-tert-butylether/2-propanol/methanol/0.1 M ammonium formate/formic acid (4:2:1:0.07:0.035, w/w) 5.9 min linear gradient: 0 min 100% A, 0.5 min 75% A, 5.9 min 10% A; followed by 0% A until 6.7 min; re-equilibration at 100% A until 7.7 min; flow rate 600 μL/min; column temperature 40 °C HILIC (ZIC-HILIC, 2.1 × 100 mm, 3.5 μm, Supelco) gradient elution was performed with mobile phase C, acetonitrile/water (99:1, v/v) with 0.2% (v) acetic acid, and D, 7 mM ammonium acetate with 0.2% (v) acetic acid (5.0 min linear gradient: 0 min 100% C, 5 min 10% C; followed by a linear gradient back to 100%C until 6.5 min; re-equilibration at 100% C until 7.5 min; flow rate 600 μL/min; column temperature 40 °C.). Two LC-MS systems with identical configuration were used for the analysis. Normalization to lyophilized reference samples (see below) was used to compensate for variation from between analytical batches. The efficiency of this normalization procedure was checked by principal component analysis (PCA), confirming that Pool samples from different analytical batches clustered together.\nReference samples derived from lyophilized untreated HepG2 cells (technical control samples) were measured in parallel throughout the entire analytical process. Data were normalized against the median of these lyophilized HepG2 cells reference samples, to give normalized ratios (performed for each sample per metabolite). This compensated for inter- and intra-instrumental variation. To correct for small differences in cell numbers within and between different treatment groups, data were also normalized to the within sample median, as described in detail by (Ramirez et al. [2018]). For intracellular metabolomic analysis, the median of each sample was calculated across all the 221 measured metabolites.\nTo generate metabolic profiles for the different treatments, heteroscedastic t test (Welch test) was applied to log-transformed normalized metabolite data to compare treated groups with their respective controls.\nPrincipal component analysis (PCA) and hierarchical clustering (HCA) analyses were performed using R software environment (https://www.r-project.org/). PCA was conducted using the ropls package (Thévenot et al. [2015]) with log10-transformed input data and standard scaling. HCA was performed using the pvclust package (Suzuki et al. [2019]), (https://CRAN.R-project.org/package=pvclust). Input: log10(Ratio), clustering method: Ward D2, distance method: Manhattan, bootstrapping: 10000 times."}
{"smiles": "CC(=O)N1CCN(c2ccc(OCC3COC(Cn4ccnc4)(c4ccc(Cl)cc4Cl)O3)cc2)CC1", "note": "(centres unmarked) [Ketoconazole]", "values": [{"measurement": "2'-Deoxycytidine level vs controls", "value": 0.76}, {"measurement": "5-Hydroxytryptophan level vs controls", "value": 0.87}, {"measurement": "Carnitine level vs controls", "value": 0.77}, {"measurement": "Ceramide (d16:1.C24:0) level vs controls", "value": 0.48}, {"measurement": "Ceramide (d17:1.C24:0) level vs controls", "value": 0.40}, {"measurement": "Ceramide (d18:1.C16:0) level vs controls", "value": 0.74}, {"measurement": "Ceramide (d18:1.C18:0) level vs controls", "value": 0.58}, {"measurement": "Ceramide (d18:1.C20:0) level vs controls", "value": 0.38}, {"measurement": "Ceramide (d18:1.C21:0) level vs controls", "value": 0.64}, {"measurement": "Ceramide (d18:1.C22:0) level vs controls", "value": 0.54}, {"measurement": "Ceramide (d18:1.C23:0) level vs controls", "value": 0.50}, {"measurement": "Ceramide (d18:1.C24:0) level vs controls", "value": 0.60}, {"measurement": "Ceramide (d18:1.C24:1) level vs controls", "value": 0.70}, {"measurement": "Ceramide (d18:2.C16:0) level vs controls", "value": 0.55}, {"measurement": "Ceramide (d18:2.C18:0) level vs controls", "value": 0.38}, {"measurement": "Ceramide (d18:2.C22:0) level vs controls", "value": 0.39}, {"measurement": "Ceramide (d18:2.C23:0) level vs controls", "value": 0.49}, {"measurement": "Ceramide (d18:2.C24:0) level vs controls", "value": 0.48}, {"measurement": "Ceramide (d18:2.C24:1) level vs controls", "value": 0.66}, {"measurement": "Ceramide (d18:2.C24:2) level vs controls", "value": 0.36}, {"measurement": "Cholesterylester (C20:2) level vs controls", "value": 0.58}, {"measurement": "Choline plasmalogen (C36:4) level vs controls", "value": 1.23}, {"measurement": "Choline plasmalogen (C36:5) level vs controls", "value": 1.44}, {"measurement": "Coenzyme Q10 level vs controls", "value": 0.65}, {"measurement": "Glutamate level vs controls", "value": 0.92}, {"measurement": "Glutathione (GSH) level vs controls", "value": 0.90}, {"measurement": "Hexadecanoylcarnitine level vs controls", "value": 1.97}, {"measurement": "Hexadecenoylcarnitine level vs controls", "value": 3.61}, {"measurement": "Isopentenyl pyrophosphate (IPP) level vs controls", "value": 0.50}, {"measurement": "Lysophosphatidylcholine (C14:0) level vs controls", "value": 1.21}, {"measurement": "Lysophosphatidylcholine (C16:0) level vs controls", "value": 1.96}, {"measurement": "Lysophosphatidylcholine (C16:1) level vs controls", "value": 2.67}, {"measurement": "Lysophosphatidylcholine (C20:0) level vs controls", "value": 1.34}, {"measurement": "Lysophosphatidylcholine (C20:1) level vs controls", "value": 1.07}, {"measurement": "Lysophosphatidylcholine (C20:4) level vs controls", "value": 6.43}, {"measurement": "Lysophosphatidylcholine (C22:0) level vs controls", "value": 1.53}, {"measurement": "Lysophosphatidylcholine (C24:1) level vs controls", "value": 2.21}, {"measurement": "Lysophosphatidylethanolamine (C16:0) level vs controls", "value": 0.82}, {"measurement": "Lysophosphatidylethanolamine (C18:0) level vs controls", "value": 1.22}, {"measurement": "Lysophosphatidylethanolamine (C20:4) level vs controls", "value": 4.71}, {"measurement": "Lysophosphatidylethanolamine (C22:6) level vs controls", "value": 4.79}, {"measurement": "N-Acetylaspartate level vs controls", "value": 0.69}, {"measurement": "N-Acetylserine level vs controls", "value": 0.84}, {"measurement": "Octadecenoylcarnitine level vs controls", "value": 3.35}, {"measurement": "Pantothenic acid level vs controls", "value": 0.85}, {"measurement": "Phosphatidylcholine (C32:0) level vs controls", "value": 0.81}, {"measurement": "Phosphatidylcholine (C34:0) level vs controls", "value": 0.81}, {"measurement": "Phosphatidylcholine (C34:1) level vs controls", "value": 0.79}, {"measurement": "Phosphatidylcholine (C34:2) level vs controls", "value": 0.89}, {"measurement": "Phosphatidylcholine (C34:3) level vs controls", "value": 1.19}, {"measurement": "Phosphatidylcholine (C36:1) level vs controls", "value": 0.77}, {"measurement": "Phosphatidylcholine (C36:2) level vs controls", "value": 0.64}, {"measurement": "Phosphatidylcholine (C36:3) level vs controls", "value": 0.89}, {"measurement": "Phosphatidylcholine (C36:4) level vs controls", "value": 0.67}, {"measurement": "Phosphatidylcholine (C36:5) level vs controls", "value": 0.66}, {"measurement": "Phosphatidylcholine (C38:4) level vs controls", "value": 1.06}, {"measurement": "Phosphatidylcholine (C38:6) level vs controls", "value": 0.74}, {"measurement": "Phosphatidylcholine (C40:6) level vs controls", "value": 1.10}, {"measurement": "Phosphatidylcholine (C40:7) level vs controls", "value": 1.16}, {"measurement": "Phosphatidylcholine (C40:8) level vs controls", "value": 1.11}, {"measurement": "Phosphatidylethanolamine (C32:0) level vs controls", "value": 0.86}, {"measurement": "Phosphatidylethanolamine (C34:0) level vs controls", "value": 0.73}, {"measurement": "Phosphatidylethanolamine (C34:1) level vs controls", "value": 0.82}, {"measurement": "Phosphatidylethanolamine (C36:0) level vs controls", "value": 0.70}, {"measurement": "Phosphatidylethanolamine (C36:1) level vs controls", "value": 0.78}, {"measurement": "Phosphatidylethanolamine (C36:2) level vs controls", "value": 0.93}, {"measurement": "Phosphatidylethanolamine (C36:4) level vs controls", "value": 0.96}, {"measurement": "Phosphatidylethanolamine (C38:3) level vs controls", "value": 0.90}, {"measurement": "Phosphatidylethanolamine (C38:4) level vs controls", "value": 1.10}, {"measurement": "Phosphatidylethanolamine (C38:5) level vs controls", "value": 1.10}, {"measurement": "Phosphatidylethanolamine (C38:6) level vs controls", "value": 0.86}, {"measurement": "Phosphatidylethanolamine (C40:7) level vs controls", "value": 1.09}, {"measurement": "Phosphocholine level vs controls", "value": 0.82}, {"measurement": "Pipecolic acid level vs controls", "value": 0.86}, {"measurement": "Proline level vs controls", "value": 0.79}, {"measurement": "Pyridoxal level vs controls", "value": 0.82}, {"measurement": "S-Adenosylhomocysteine level vs controls", "value": 0.69}, {"measurement": "Sphingomyelin (d32:1) level vs controls", "value": 1.49}, {"measurement": "Sphingomyelin (d32:2) level vs controls", "value": 1.28}, {"measurement": "Sphingomyelin (d33:1) level vs controls", "value": 1.18}, {"measurement": "Sphingomyelin (d34:0) level vs controls", "value": 2.87}, {"measurement": "Sphingomyelin (d34:2) level vs controls", "value": 1.31}, {"measurement": "Sphingomyelin (d35:1) level vs controls", "value": 1.86}, {"measurement": "Sphingomyelin (d35:2) level vs controls", "value": 1.71}, {"measurement": "Sphingomyelin (d36:1) level vs controls", "value": 1.62}, {"measurement": "Sphingomyelin (d36:2) level vs controls", "value": 1.45}, {"measurement": "Sphingomyelin (d36:3) level vs controls", "value": 1.48}, {"measurement": "Sphingomyelin (d37:1) level vs controls", "value": 1.49}, {"measurement": "Sphingomyelin (d38:1) level vs controls", "value": 1.42}, {"measurement": "Sphingomyelin (d38:2) level vs controls", "value": 1.21}, {"measurement": "Sphingomyelin (d39:1) level vs controls", "value": 1.79}, {"measurement": "Sphingomyelin (d40:1) level vs controls", "value": 1.85}, {"measurement": "Sphingomyelin (d40:2) level vs controls", "value": 1.67}, {"measurement": "Sphingomyelin (d41:1) level vs controls", "value": 1.75}, {"measurement": "Sphingomyelin (d41:2) level vs controls", "value": 1.88}, {"measurement": "Sphingomyelin (d42:1) level vs controls", "value": 1.54}, {"measurement": "Sphingomyelin (d42:2) level vs controls", "value": 1.83}, {"measurement": "Taurine level vs controls", "value": 1.32}, {"measurement": "Tetradecanoylcarnitine level vs controls", "value": 2.20}, {"measurement": "Threonine level vs controls", "value": 0.85}, {"measurement": "Triacylglycerol (C30:0.C18:1) level vs controls", "value": 0.61}, {"measurement": "Triacylglycerol (C32:0.C16:0) level vs controls", "value": 0.23}, {"measurement": "Triacylglycerol (C32:0.C16:1) level vs controls", "value": 0.51}, {"measurement": "Triacylglycerol (C34:0.C16:0) level vs controls", "value": 0.16}, {"measurement": "Triacylglycerol (C34:0.C17:0) level vs controls", "value": 0.34}, {"measurement": "Triacylglycerol (C34:0.C18:0) level vs controls", "value": 0.14}, {"measurement": "Triacylglycerol (C34:0.C18:1) level vs controls", "value": 0.31}, {"measurement": "Triacylglycerol (C34:1.C16:0) level vs controls", "value": 0.44}, {"measurement": "Triacylglycerol (C34:1.C18:1) level vs controls", "value": 0.83}, {"measurement": "Triacylglycerol (C34:1.C18:3) level vs controls", "value": 1.33}, {"measurement": "Triacylglycerol (C34:2.C18:0) level vs controls", "value": 0.68}, {"measurement": "Triacylglycerol (C34:2.C18:1) level vs controls", "value": 1.31}, {"measurement": "Triacylglycerol (C36:1.C18:0) level vs controls", "value": 0.27}, {"measurement": "Triacylglycerol (C36:1.C18:1) level vs controls", "value": 0.61}, {"measurement": "Triacylglycerol (C36:2.C18:1) level vs controls", "value": 1.14}, {"measurement": "Triacylglycerol (C36:3.C18:1) level vs controls", "value": 1.57}, {"measurement": "Triacylglycerol (C36:3.C18:2) level vs controls", "value": 2.03}, {"measurement": "Triacylglycerol (C36:4.C16:0) level vs controls", "value": 1.15}, {"measurement": "Triacylglycerol (C36:4.C18:0) level vs controls", "value": 1.19}, {"measurement": "myo-Inositol-2-phosphate level vs controls", "value": 0.50}, {"measurement": "Sphingomyelin (d34:1) level vs controls", "setting": "first of two lines with this name", "value": 1.40}, {"measurement": "Sphingomyelin (d34:1) level vs controls", "setting": "second of two lines with this name", "value": 1.16}]}
